This is an account of results in publication PMC4601027, “Structural Analysis of the Pin1-CPEB1 interaction and its potential role in CPEB1 degradation” (Scientific Reports, 2015).

Non-standard residues stand in square brackets, D forms with d. Residues, ends and D or L forms follow the SMILES beside them. pS = N[C@@H](COP(=O)(O)O)C(=O)O

In one experiment the target is T1, Pin1 full-length (Homo sapiens, UniProt Q13526).
T1 construct: The full-length Pin1 clone was obtained from Addgene; His6 (N); provided by Dustin Maly's Lab
T1 sequence (Q13526 whole entry): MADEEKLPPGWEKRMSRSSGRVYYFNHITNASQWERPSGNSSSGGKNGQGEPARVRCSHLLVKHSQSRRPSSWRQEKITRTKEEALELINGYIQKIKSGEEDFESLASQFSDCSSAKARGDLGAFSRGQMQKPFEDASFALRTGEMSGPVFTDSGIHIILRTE
The experiment can be described thus: ITC titration of CPEB1 phosphopeptides with Pin1 full-length. It counts as binding. Particulars: for Kd: nano ITC calorimeter, 12 °C or 25 °C, 20 mM Tris-HCl pH 7.0, 130 mM NaCl, repeated at least twice, for pS210 one Pin1 molecule could interact with two peptides, read-out: Pin1 FL KD. From the text:
(§1) Pin1 interacts with phosphorylated CPEB1 in Xenopus oocytes, as well as in mammalian cells. […] Therefore, to mimic the in vivo scenario, we measured the affinities of the interactions between recombinant proteins (the isolated WW domain and also the full-length protein) with several peptides containing the phosphorylation sites within CPEB1. These peptides were synthesized using Fmoc Solid-Phase Peptide Synthesis (SPPS) (Supplementary Fig 2). […] All affinities were found in the low μM range (Fig. 2a,b), with the exception of the pS423 site of CPEB1, located in the linker region between the RRM domains, whose affinity was considerably lower than the rest. Our results reveal that the peptides containing pS184 and pS210—the latter known to be essential for CPEB degradation—display the best affinities for Pin1 in vitro. The affinity of the phosphorylation-dependent interaction was about 10-fold higher than that of the unphosphorylated CPEB N-terminal counterparts. In addition, in most of the peptides examined, similar binding affinities and stoichiometries (1:1) were observed using either the full-length Pin1 protein or the truncated WW domain. Only when analyzing the interaction of CPEB1 pS210 and the full-length Pin1 protein we obtained a stoichiometry below 1 (n = 0.85), which cannot be attributed to systematic errors in the determination of the protein concentration. This discrepancy might indicate that in addition to the main complex consisting of a 1:1 protein/peptide ratio, a small population with a 1:2 stoichiometry is also present in solution.
ITC measurements were performed using a nano ITC calorimeter (TA Instruments) at 12 °C or 25 °C. Protein samples were prepared in 20 mM Tris-HCl pH 7.0 and 130 mM NaCl. All samples were degassed and centrifuged prior to the experiments. Protein concentration was measured in a NanoDrop™ 2000 measuring the UV absorption at 280 nm. Peptide concentration was determined by amino acid analysis. Depending on the expected affinity, sigmoidal curves were optimized by injecting 10- to 15-fold concentrated peptide in 16 × 3 μL steps in a cell containing 190 μL of protein at an adjusted concentration of between 150 and 200 μM , stirring at 200 revolutions per minute (rpm). The delay between injections was set to be of 3 minutes. The NanoAnalyze software (TA Instruments) was used to determine the binding isotherms, assuming a single binding site in each molecule (except for the Pin1 full-length interaction with the CPEB1 pS210 peptide, where one Pin1 molecule could interact with two peptides). Baseline controls were acquired with buffer and pure peptide solutions. Measurements were repeated at least twice.

For experiment [1], the target named is T2, Pin1 WW domain (Uniprot: Q13526, Residues: 1–41) (Homo sapiens, UniProt Q13526).
T2 construct: The Pin1 WW domain (Uniprot: Q13526, Residues: 1–41); His6 (N); GST (N); made in house
T2 sequence (Q13526 1-41): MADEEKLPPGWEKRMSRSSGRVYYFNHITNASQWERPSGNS
The experiment can be described thus: ITC titration of CPEB1 phosphopeptides with Pin1 WW domain. The settings on record: nano ITC calorimeter, 12 °C or 25 °C, 20 mM Tris-HCl pH 7.0, 130 mM NaCl, single binding site model, repeated at least twice.
Source text: as §1
ITC measurements were performed using a nano ITC calorimeter (TA Instruments) at 12 °C or 25 °C. Protein samples were prepared in 20 mM Tris-HCl pH 7.0 and 130 mM NaCl. All samples were degassed and centrifuged prior to the experiments. Protein concentration was measured in a NanoDrop™ 2000 measuring the UV absorption at 280 nm. Peptide concentration was determined by amino acid analysis. […]
(In general: In ITC the heat of successive injections is recorded.)

On to `CSCC[C@H](NC(=O)[C@H](CO)NC(C)=O)C(=O)N[C@@H](CC(C)C)C(=O)N[C@@H](CC(N)=O)C(=O)N[C@@H](COP(=O)(O)O)C(=O)N1CCC[C@H]1C(=O)N[C@@H](CCSC)C(=O)NCC(=O)N[C@@H](CCCCN)C(N)=O` [CPEB1 pS138] (Ac-SMLN[pS]PMGK-NH2; N-terminus assumed), for which the equilibrium dissociation constant (Kd) at Pin1 full-length is 84.3 ± 10.6 µM; in experiment [1], 71.3 ± 9.3 µM.

With `CC(=O)NCC(=O)N[C@@H](CCCCN)C(=O)N1CCC[C@H]1C(=O)N[C@@H](COP(=O)(O)O)C(=O)N1CCC[C@H]1C(=O)N[C@@H](CC(C)C)C(=O)NCC(=O)N[C@@H](Cc1ccccc1)C(=O)N[C@@H](CC(C)C)C(=O)N[C@H](C(N)=O)[C@@H](C)O` [CPEB1 pS144] (Ac-GKP[pS]PLGFLT-NH2; N-terminus assumed), the Kd is 83.5 ± 11.5 µM at Pin1 full-length and 75.4 ± 12.7 µM in experiment [1].

Regarding `CC[C@H](C)[C@H](NC(=O)[C@H](CCCNC(=N)N)NC(=O)[C@H](CC(C)C)NC(C)=O)C(=O)N[C@@H](COP(=O)(O)O)C(=O)N1CCC[C@H]1C(=O)N1CCC[C@H]1C(=O)N[C@@H](CC(C)C)C(=O)N[C@@H](Cc1c[nH]cn1)C(=O)N[C@@H](Cc1ccccc1)C(=O)N[C@@H](CC(C)C)C(=O)N1CCC[C@H]1C(=O)N[C@@H](CC(C)C)C(=O)NCC(=O)NCC(N)=O` [CPEB1 pS210] (Ac-LRI[pS]PPLHFLPLGG-NH2; N-terminus assumed), the “stoichiometry (n), full-length Pin1” value at Pin1 full-length (protein/peptide stoichiometry) worked out at 0.85.

Take `CC(=O)N[C@@H](C)C(=O)N[C@@H](C)C(=O)N[C@H](C(=O)N[C@H](C(=O)N[C@@H](COP(=O)(O)O)C(=O)N1CCC[C@H]1C(=O)N[C@@H](CC(C)C)C(=O)NCC(N)=O)C(C)C)[C@@H](C)O` [CPEB1 pS248] (Ac-AATV[pS]PLG-NH2; N-terminus assumed): the figures for the dissociation constant Kd (on Pin1 full-length; in experiment [1]) were 42.4 ± 8.7 µM and 47.6 ± 7.6 µM, respectively.

For orientation: Kd means the concentration at which binding is half-saturated.
